Results reported in patent publication US11952349B2, “Anti-cancer nuclear hormone receptor-targeting compounds” (Nuvation Bio Inc., priority 2019, dated 2024).

Key:
[1] = biological target: Human recombinant PARP1 (Homo sapiens, UniProt P09874); assay: RBC HotSpot PARP1 assay (radioisotope-based filter binding); type: biochemical; conditions: Table 9; read-out: PARP1
Description: The following methods are for evaluating the in vitro biology properties of the test articles. • a. RBC HotSpot Poly(ADP-ribose) Polymerases 1 (PARP1) and Poly(ADP-ribose) Polymerases 2 (PARP2) Assays: The assay was conducted at Reaction Biology Corporation (RBC; Malvern, PA). The assay principle is radioisotope-based filter binding assay where incorporation of radioisotope-labeled NAD^+ into the substrate captured on filter is detected after washout free NAD^+. Data were analyzed using Excel and GraphPad Prism software for IC50 curve fits. Each assay was conducted with PJ34 as a positive control. PARP1 assay: Human recombinant PARP1 at a final concentration of 2.5 nM was combined with histone H4 (20 μM) and test articles at various concentrations in reaction buffer (50 mM Tris-HCL, pH 8.0, 50 mM NaCl, 10 mM MgCl2, 1 mM DTT, 1% DMSO, and 20 μg/mL activated DNA). The solution was inoculated for 20 min at room temperature and the reaction initiated by adding [adenylate-^32P]-Nicotinamide Adenine Dinucleotide, ^32P-NAD^+ at a final concentration of 10 μM. After incubation for 2 hrs at room temperature, the reaction mixture was filtered and washed with 0.75% phosphoric acid for radioactivity detection. • ii. PARP2 assay: Human recombinant PARP2 at a final concentration of 2.5 nM was combined with histone H3 (20 μM) and test articles at various concentrations in reaction buffer (50 mM Tris-HCL, pH 8.0, 50 mM NaCl, 10 mM MgCl2, 1 mM DTT, 1% DMSO, and 20 μg/mL activated DNA). The solution was inoculated for 20 min at room temperature and the reaction was initiated by adding [adenylate-^32P]-Nicotinamide Adenine Dinucleotide, ^32P-NAD^+ at a final concentration of 10 μM. After incubation for 2 hrs at room temperature, the reaction mixture was filtered and washed with 0.75% phosphoric acid for radioactivity detection. • b. AR binding assay: AR in LNCaP cytosol was used for determining the binding affinity of test articles and the reference compound—progesterone (Sigma, Cat: E2785, St. Louis, MO). IC50 s were determined using 8 concentrations/compound. Cytosol is plated at 200 μg/well (100 μL) into a 96-well conical polypropylene plate (Agilent, Cat: 5042-1385, Santa Clara, CA) and mixed with 3 μL of test compound. After adding 100 μL of ^3H-methyltrienolone (PerkinElmer, Cat: NET590250UC, San Jose, CA), the plate was sealed and shaken at 300 rpm at 4° C. for 24 hours. Post incubation, 100 μL of radioligand adsorption buffer containing 10 mM Tris-HCl, pH 7.4; 1.5 mM EDTA; 1 mM DTT; 0.25% charcoal; 0.0025% dextran was added to individual wells. Plate was shaken for 15 min at 4° C. followed by centrifugation at 3000 rpm for 30 min at 4° C. 150 μL of supernatant is transferred into scint-tube (PerkinElmer, Cat: 6000192) and mixed with 2 mL of Ultima Gold Cocktail (PerkinElmer, Cat: 6013329). Radioactivity is counted using a TriCarb 2910 TR scintillation counter (PerkinElmer). Inhibition of the radioactivity by test articles was calculated using the equation below: % Inhibition=(1−(Assay well−Average_LC)/(Average_HC−Average_LC))×100%. • IC50 values (Table 6) were calculated and graphed using the model “log(inhibitor) vs. response—Variable slope” included in GraphPad Prism 5 (San Diego, CA). The Ki values were further calculated using the equation below where [L] is the radioligand concentration (1 nM) used in this study. Kd value was 0.332 nM. Ki=IC50/(1+[L]/Kd) • c. AR transactivation: Human AR cloned into a CMV vector backbone is used for the transactivation study. HEK-293 cells are plated at 80,000 cells per well of a 24 well plate in DME+5% csFBS. Twenty four hours later, the cells are transfected using Lipofectamine (Invitrogen, Carlsbad, CA) with 0.25 μg GRE-LUC, 0.01 μg CMV-LUC (renilla luciferase) and 25 ng of the AR in OPTIMEM medium. The cells are treated 24 hrs after transfection with various ligands (10^−12 to 10^−5 M final concentrations) and luciferase assay performed 48 hours after transfection. […]

[2] = biological target: T1, full-length androgen receptor (Homo sapiens, UniProt P10275); assay: AR antagonism assay (HEK293, testosterone 1 nM, Steady-glo); type: cell-based; conditions: Table 8; testosterone 1 nM; read-out: AR antagonism
T1 construct: HEK293 cells stably expressing the full-length androgen receptor; expressed in transfected cells
T1 sequence (P10275 1-920): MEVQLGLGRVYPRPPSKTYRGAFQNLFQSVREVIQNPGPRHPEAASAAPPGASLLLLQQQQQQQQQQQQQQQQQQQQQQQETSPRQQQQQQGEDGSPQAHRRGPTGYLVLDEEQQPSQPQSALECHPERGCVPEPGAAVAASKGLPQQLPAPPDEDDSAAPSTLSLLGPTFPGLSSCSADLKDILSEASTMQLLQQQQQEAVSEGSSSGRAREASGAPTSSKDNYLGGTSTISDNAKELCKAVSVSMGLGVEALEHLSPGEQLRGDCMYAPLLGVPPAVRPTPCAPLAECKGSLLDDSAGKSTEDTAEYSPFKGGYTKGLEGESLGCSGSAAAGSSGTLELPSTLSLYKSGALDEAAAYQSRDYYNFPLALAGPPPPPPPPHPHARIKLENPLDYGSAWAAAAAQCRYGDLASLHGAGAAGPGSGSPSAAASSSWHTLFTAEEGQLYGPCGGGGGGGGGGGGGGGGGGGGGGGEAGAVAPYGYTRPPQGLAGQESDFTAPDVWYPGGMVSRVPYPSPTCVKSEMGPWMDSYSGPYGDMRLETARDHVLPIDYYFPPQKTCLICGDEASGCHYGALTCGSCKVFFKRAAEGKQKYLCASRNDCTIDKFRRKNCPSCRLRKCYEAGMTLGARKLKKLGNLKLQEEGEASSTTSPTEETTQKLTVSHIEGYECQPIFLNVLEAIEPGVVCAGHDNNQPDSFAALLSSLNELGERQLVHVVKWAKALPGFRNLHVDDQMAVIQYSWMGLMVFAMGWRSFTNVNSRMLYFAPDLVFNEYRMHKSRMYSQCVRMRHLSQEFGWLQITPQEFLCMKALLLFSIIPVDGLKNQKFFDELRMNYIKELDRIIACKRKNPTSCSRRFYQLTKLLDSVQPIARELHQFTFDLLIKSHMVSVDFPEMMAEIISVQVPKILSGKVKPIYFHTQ
Description: AR antagonism assay: To evaluate AR antagonist activity, test compound was added to the assay plate (top dose 10 μM, 3 fold serial dilution, 10 point dose response). HEK293 cells stably expressing the full-length androgen receptor were seeded at a density of 20000 cells/well in the assay plate. The assay plate was then incubated at room temperature for 10 minutes and at 37° C., 5% CO2 for 20 minutes. Testosterone was added to the assay plate at 1 nM final concentration and the assay plate was incubated at 37° C., 5% CO2 for 20 h. After the incubation period, Steady-glo was added to the assay plate and mixed at room temperature for 20 minutes on an orbital shaker, before reading out on the EnVision plate reader.

Chain of Human recombinant PARP1 (P09874 whole entry): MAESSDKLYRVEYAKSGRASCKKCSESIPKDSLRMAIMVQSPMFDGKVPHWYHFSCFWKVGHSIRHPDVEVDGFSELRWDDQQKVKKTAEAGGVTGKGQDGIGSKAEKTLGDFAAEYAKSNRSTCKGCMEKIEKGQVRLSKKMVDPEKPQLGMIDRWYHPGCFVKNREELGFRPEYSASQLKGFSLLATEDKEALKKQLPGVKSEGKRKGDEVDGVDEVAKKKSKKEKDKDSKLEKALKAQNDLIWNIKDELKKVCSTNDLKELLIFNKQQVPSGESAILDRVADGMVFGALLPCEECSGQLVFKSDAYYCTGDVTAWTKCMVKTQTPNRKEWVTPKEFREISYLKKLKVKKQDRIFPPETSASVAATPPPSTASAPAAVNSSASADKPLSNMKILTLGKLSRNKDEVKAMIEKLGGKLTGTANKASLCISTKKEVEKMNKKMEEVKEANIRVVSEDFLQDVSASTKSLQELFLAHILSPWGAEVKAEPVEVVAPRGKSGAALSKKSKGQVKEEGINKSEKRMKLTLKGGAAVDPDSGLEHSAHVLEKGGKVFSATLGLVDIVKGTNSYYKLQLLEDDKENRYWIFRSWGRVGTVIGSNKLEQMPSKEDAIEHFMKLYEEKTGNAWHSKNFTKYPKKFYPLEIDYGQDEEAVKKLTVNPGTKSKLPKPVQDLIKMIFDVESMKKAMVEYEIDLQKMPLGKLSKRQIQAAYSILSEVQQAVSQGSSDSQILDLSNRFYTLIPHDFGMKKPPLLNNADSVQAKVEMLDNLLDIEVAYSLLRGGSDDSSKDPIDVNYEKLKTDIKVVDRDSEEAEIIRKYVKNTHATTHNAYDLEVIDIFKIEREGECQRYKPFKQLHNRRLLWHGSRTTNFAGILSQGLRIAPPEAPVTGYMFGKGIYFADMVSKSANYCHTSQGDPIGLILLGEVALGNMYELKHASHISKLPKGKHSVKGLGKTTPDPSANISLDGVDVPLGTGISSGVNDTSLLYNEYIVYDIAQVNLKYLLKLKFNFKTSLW

IC50 [1]: < 1 nM
IC50 [2]: > 10 µM
SMILES: CC#C[C@]1(O)CC[C@H]2[C@@H]3CCC4=CC(=O)CCC4=C3[C@@H](c3ccc(N(C)CCCCCC(=O)NCCOCCOCC(=O)N4CCN(C(=O)c5cc(Cc6n[nH]c(=O)c7ccccc67)ccc5F)CC4)cc3)C[C@@]21C [Compound 1429, N-(2-(2-(2-(4-(2-fluoro-5-((4-oxo-3,4-dihydrophthalazin-1-yl)methyl)benzoyl)piperazin-1-yl)-2-oxoethoxy)ethoxy)ethyl)-6-((4-((8S,11R,13S,14S,17S)-17-hydroxy-13-methyl-3-oxo-17-(prop-1-ynyl)-2,3,6,7,8,11,12,13,14,15,16,17-dodecahydro-1H-cyclopenta[a]phenanthren-11-yl)phenyl)(methyl)amino)hexanamide]
